Source: patent US12275719B2, “Small molecule inhibitors of galectin-3” (BRISTOL-MYERS SQUIBB COMPANY, priority 2019, dated 2025)

What follows are compounds tested against His-tagged recombinant human Gal-3 (hGal-3) (Homo sapiens, UniProt P17931) (assay: Gal-3 HTRF assay (hGal-3 / B-ASF binding inhibition)). Settings: Examples 26 to 29 and 66 to 68; HTRF, 15 nM hGal-3, 15 nM B-ASF.
Method: ASSAY BUFFER Composition: 25 mM HEPES, 100 mM NaCl, 0.005% Tween 20, 0.05% BSA prepared in sterile water (all reagents from Sigma).
Positive Control: 100% DMSO (1 μL)+His-tagged hGal-3 (20 μL)+β-ASF (20 μL)+Anti-His Terbium Antibody (5 μL)+Strep d2 Antibody (5 μL).
Negative Control: 100% DMSO (1 μL)+His-tagged hGal-3 (20 μL)+Anti His Terbium Antibody (5 μL)+Strep d2 Aantibody (5 μL).
PROTOCOL: The Gal-3 assays were performed in 384 white Opti plates in three replicates at room temperature with gentle shaking at 250-300 rpm From the original stocks, […] working stock concentrations of His-tagged recombinant human Gal-3 (hGal-3) and that of B-ASF were prepared. From the working stock, 20 μL of hGal-3 (15 nM) and 20 μL B-ASF (15 nM) were added to the plates. In Negative Control, only hGal-3 was added. A concentration range of 50× working stocks were prepared for the compounds in 100% DMSO. Aliquots of 1 μL of the compounds were added to the wells and pre-incubated with 20 μL hGal-3 per well for 30 minutes Then 20 μL B-ASF were added and incubated for another 1 hour. To detect the signal, 5 μL (final conc. of 1.0 nM) terbium labelled Anti-His antibody was added and incubated for 30 min followed by adding 5 μL (final conc. of 20 nM) Streptavidin d2 and incubation for another 1 hour. The assay signal was detected using HTRF screen protocol (Excitation wavelength=340 nm, emission wavelength=615 nm/665 nm) on Envision 2104 Multilabel Reader. Data analysed using Toolset and Curve Master. Results are reported in the experimental section (IC50 in μM).

His-tagged recombinant human Gal-3 (hGal-3), sequence (P17931 whole entry): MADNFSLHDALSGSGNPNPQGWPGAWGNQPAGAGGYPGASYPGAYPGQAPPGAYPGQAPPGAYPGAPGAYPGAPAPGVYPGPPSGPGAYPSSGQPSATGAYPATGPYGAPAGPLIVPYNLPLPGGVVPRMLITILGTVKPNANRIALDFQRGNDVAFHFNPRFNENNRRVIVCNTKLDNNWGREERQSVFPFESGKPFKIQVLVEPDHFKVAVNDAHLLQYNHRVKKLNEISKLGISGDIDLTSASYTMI

| SMILES | IC50 |
| --- | --- |
| OC[C@H]1O[C@@H](c2nncn2-c2ccc3ncsc3c2)[C@H](OCC(F)F)[C@@H](n2cc(-c3cc(F)c(Br)c(F)c3)nn2)[C@H]1O [Example 68, (2R,3R,4S,5R,6S)-6-(4-(benzo[d]thiazol-6-yl)-4H-1,2,4-triazol-3-yl)-4-(4-(4-bromo-3,5-difluorophenyl)-1H-1,2,3-triazol-1-yl)-5-(2,2-difluoroethoxy)-2-(hydroxymethyl)tetrahydro-2H-pyran-3-ol] | 0.025 µM |
| OC[C@H]1O[C@@H](c2n[nH]c(=S)n2-c2cc(Cl)ccc2C(F)(F)F)[C@H](O)[C@@H](n2cc(-c3ccc(Br)c(F)c3F)nn2)[C@H]1O (single isomer, unassigned) [Example 27] | 0.076 µM |
| OC[C@H]1O[C@@H](c2nncn2-c2cc(Cl)ccc2C(F)(F)F)[C@H](OCC(F)F)[C@@H](n2cc(-c3ccc(Br)c(F)c3F)nn2)[C@H]1O [Example 29, (2R,3R,4S,5R,6S)-4-(4-(4-bromo-2,3-difluorophenyl)-1H-1,2,3-triazol-1-yl)-6-(4-(5-chloro-2-(trifluoromethyl)phenyl)-4H-1,2,4-triazol-3-yl)-5-(2,2-difluoroethoxy)-2-(hydroxymethyl)tetrahydro-2H-pyran-3-ol] | 0.011 µM |

Same assay, conditions: table of Examples 5 to 25

| SMILES | IC50 |
| --- | --- |
| CO[C@@H]1[C@@H](n2cc(-c3ccc(Cl)c(F)c3F)nn2)[C@@H](O)[C@@H](CO)O[C@H]1c1nc(C)nn1-c1ccc2ncsc2c1 [Example 21] | 0.01 µM |
| COc1cc(-c2cn([C@H]3[C@@H](O)[C@@H](CO)O[C@@H](c4nc(C)nn4-c4cc(Cl)ccc4C(F)(F)F)[C@@H]3O)nn2)cc(F)c1Br [Example 19] | 0.023 µM |
| Cc1nc([C@@H]2O[C@H](CO)[C@H](O)[C@H](n3cc(-c4ccc(C#N)c(F)c4F)nn3)[C@H]2O)n(-c2cc(Cl)ccc2C(F)(F)F)n1 [Example 13] | 0.019 µM |
| Cc1nc([C@@H]2O[C@H](CO)[C@H](O)[C@H](n3cc(-c4ccc(Br)c(F)c4F)nn3)[C@H]2O)n(-c2cc(Cl)ncc2C(F)(F)F)n1 [Example 9] | 0.012 µM |
| Cc1nc([C@@H]2O[C@H](CO)[C@H](O)[C@H](n3cc(-c4ccc(Cl)c(F)c4F)nn3)[C@H]2O)n(-c2cc(Cl)cnc2C(F)(F)F)n1 [Example 22] | 0.055 µM |
| Cc1nc([C@@H]2O[C@H](CO)[C@H](O)[C@H](n3cc(-c4ccc(Cl)c(F)c4Cl)nn3)[C@H]2O)n(-c2cc(Cl)ccc2C(F)(F)F)n1 [Example 11] | 0.014 µM |
| Cc1nc([C@@H]2O[C@H](CO)[C@H](O)[C@H](n3cc(-c4ccc(Br)cc4F)nn3)[C@H]2O)n(-c2cc(Cl)ccc2C(F)(F)F)n1 [Example 12] | 0.056 µM |
| COc1cc(-c2cn([C@H]3[C@@H](O)[C@@H](CO)O[C@@H](c4nc(C)nn4-c4cc(Cl)ccc4C(F)(F)F)[C@@H]3O)nn2)cc2ccccc12 [Example 18] | 1.33 µM |
| COc1c(Cl)ccc(-c2cn([C@H]3[C@@H](O)[C@@H](CO)O[C@@H](c4nc(C)nn4-c4cc(Cl)ccc4C(F)(F)F)[C@@H]3O)nn2)c1F [Example 14] | 0.137 µM |
| Cc1nc([C@@H]2O[C@H](CO)[C@H](O)[C@H](n3cc(-c4ccc(Br)c(Cl)c4F)nn3)[C@H]2O)n(-c2cc(Cl)ccc2C(F)(F)F)n1 [Example 15] | 0.096 µM |

Same assay, conditions: table of Examples 30 to 65

| SMILES | IC50 |
| --- | --- |
| CO[C@@H]1[C@@H](n2cc(-c3ccc(Br)c(F)c3F)nn2)[C@@H](O)[C@@H](CO)O[C@H]1c1nncn1-c1cc(Cl)ccc1C(F)(F)F [Example 35] | 0.0093 µM |
| OC[C@H]1O[C@@H](c2nncn2-c2cc(Cl)ccc2C(F)(F)F)[C@H](OCC(F)F)[C@@H](n2cc(-c3ccc(Br)c(F)c3)nn2)[C@H]1O [Example 62] | 0.04 µM |
| CO[C@@H]1[C@@H](n2cc(-c3cc(F)c(Cl)c(Cl)c3)nn2)[C@@H](O)[C@@H](CO)O[C@H]1c1nncn1-c1cc(Cl)ccc1C(F)(F)F [Example 36] | 0.035 µM |
| CO[C@@H]1[C@@H](n2cc(-c3ccc(Br)c(F)c3)nn2)[C@@H](O)[C@@H](CO)O[C@H]1c1ncnn1-c1cc(Cl)ccc1C(F)(F)F [Example 30] | 0.022 µM |
| OC[C@H]1O[C@@H](c2nncn2-c2cc(Cl)ccc2C(F)(F)F)[C@H](OCC(F)(F)F)[C@@H](n2cc(-c3ccc(Cl)c(F)c3F)nn2)[C@H]1O [Example 60] | 0.014 µM |
| OC[C@H]1O[C@@H](c2nncn2-c2cc(Cl)ccc2OC(F)(F)F)[C@H](OCC(F)(F)C(F)F)[C@@H](n2cc(-c3ccc(Br)c(F)c3F)nn2)[C@H]1O [Example 61] | 0.049 µM |
| CO[C@@H]1[C@@H](n2cc(-c3ccc(Cl)c(F)c3F)nn2)[C@@H](O)[C@@H](CO)O[C@H]1c1nncn1-c1cc(Cl)ccc1OC(F)(F)F [Example 56] | 0.011 µM |
| OC[C@H]1O[C@@H](c2nncn2-c2cc(Cl)ccc2OC(F)(F)F)[C@H](OCC(F)F)[C@@H](n2cc(-c3ccc(Cl)c(F)c3F)nn2)[C@H]1O [Example 53] | 0.019 µM |
| CO[C@@H]1[C@@H](n2cc(-c3ccc(Br)c(F)c3F)nn2)[C@@H](O)[C@@H](CO)O[C@H]1c1nncn1-c1cc(Cl)ccc1OC(F)(F)F [Example 48] | 0.014 µM |
| OC[C@H]1O[C@@H](c2nncn2-c2cc(Cl)ccc2C(F)(F)F)[C@H](O)[C@@H](n2cc(-c3cc(F)c(Cl)c(Cl)c3)nn2)[C@H]1O [Example 34] | 0.02 µM |
| OC[C@H]1O[C@@H](c2nncn2-c2cc(Cl)ccc2C(F)(F)F)[C@H](O)[C@@H](n2cc(-c3ccc(Cl)c(F)c3F)nn2)[C@H]1O [Example 52] | 0.0097 µM |
| OC[C@H]1O[C@@H](c2nncn2-c2cc(Cl)ccc2C(F)(F)F)[C@H](OCC(F)F)[C@@H](n2cc(-c3ccc(Cl)c(F)c3F)nn2)[C@H]1O [Example 54] | 0.012 µM |
| CO[C@@H]1[C@@H](n2cc(-c3c(F)c(F)c(Br)c(F)c3F)nn2)[C@@H](O)[C@@H](CO)O[C@H]1c1nncn1-c1cc(Cl)ccc1OC(F)(F)F [Example 55] | 0.011 µM |

Same assay, conditions: table of Examples 69 to 75

| SMILES | IC50 |
| --- | --- |
| CNCCN(C)C(=O)CO[C@@H]1[C@@H](n2cc(-c3cc(F)c(Cl)c(F)c3)nn2)[C@@H](O)[C@@H](CO)O[C@H]1c1nncn1-c1ccc2nc(C)sc2c1 [Example 73] | 0.054 µM |
| OC[C@H]1O[C@@H](c2nncn2-c2cc(Cl)cc3cccnc23)[C@H](OCC(F)F)[C@@H](n2cc(-c3cc(F)c(Br)c(F)c3)nn2)[C@H]1O [Example 69] | 0.13 µM |
| OC[C@H]1O[C@@H](c2nncn2-c2ccc3ncsc3c2)[C@H](OCC(F)F)[C@@H](n2cc(-c3ccc(Br)c(F)c3F)nn2)[C@H]1O [Example 70] | 0.011 µM |
| Cc1nc2ccc(-n3cnnc3[C@@H]3O[C@H](CO)[C@H](O)[C@H](n4cc(-c5cc(F)c(Cl)c(F)c5)nn4)[C@H]3OCC(=O)O)cc2s1 [Example 72] | 0.016 µM |

Same assay, conditions: text of Examples 1 to 4; HTRF, 15 nM hGal-3, 15 nM B-ASF

| SMILES | IC50 |
| --- | --- |
| CNC(=O)CO[C@@H]1[C@@H](n2cc(-c3cc(F)c(Cl)c(F)c3)nn2)[C@@H](O)[C@@H](CO)O[C@H]1c1nc(C)nn1-c1cc(Cl)ccc1C(F)(F)F [Example 4, 2-(((2S,3R,4S,5R,6R)-2-(1-(5-chloro-2-(trifluoromethyl)phenyl)-3-methyl-1H-1,2,4-triazol-5-yl)-4-(4-(4-chloro-3,5-difluorophenyl)-1H-1,2,3-triazol-1-yl)-5-hydroxy-6-(hydroxymethyl)tetrahydro-2H-pyran-3-yl)oxy)-N-methylacetamide] | 0.023 µM |
| Cc1nc([C@@H]2O[C@H](CO)[C@H](O)[C@H](n3cc(-c4ccc(Br)c(F)c4F)nn3)[C@H]2O)n(-c2ccc3ncsc3c2)n1 [Example 1, (2S,3R,4R,5R,6R)-2-(1-(Benzo[d]thiazol-6-yl)-3-methyl-1H-1,2,4-triazol-5-yl)-4-(4-(4-bromo-2,3-difluorophenyl)-1H-1,2,3-triazol-1-yl)-6-(hydroxymethyl)tetrahydro-2H-pyran-3,5-diol] | 0.007 µM |
